Our source for the % of control and % of inhibition values is ChEMBL document CHEMBL5465560, “Selectivity Literature for EUbOPEN Chemogenomic Library” (2024).

For experiment [1], the target named is T1, Serine/threonine-protein kinase PLK4 (Homo sapiens) (UniProt O00444).
T1 sequence (whole entry): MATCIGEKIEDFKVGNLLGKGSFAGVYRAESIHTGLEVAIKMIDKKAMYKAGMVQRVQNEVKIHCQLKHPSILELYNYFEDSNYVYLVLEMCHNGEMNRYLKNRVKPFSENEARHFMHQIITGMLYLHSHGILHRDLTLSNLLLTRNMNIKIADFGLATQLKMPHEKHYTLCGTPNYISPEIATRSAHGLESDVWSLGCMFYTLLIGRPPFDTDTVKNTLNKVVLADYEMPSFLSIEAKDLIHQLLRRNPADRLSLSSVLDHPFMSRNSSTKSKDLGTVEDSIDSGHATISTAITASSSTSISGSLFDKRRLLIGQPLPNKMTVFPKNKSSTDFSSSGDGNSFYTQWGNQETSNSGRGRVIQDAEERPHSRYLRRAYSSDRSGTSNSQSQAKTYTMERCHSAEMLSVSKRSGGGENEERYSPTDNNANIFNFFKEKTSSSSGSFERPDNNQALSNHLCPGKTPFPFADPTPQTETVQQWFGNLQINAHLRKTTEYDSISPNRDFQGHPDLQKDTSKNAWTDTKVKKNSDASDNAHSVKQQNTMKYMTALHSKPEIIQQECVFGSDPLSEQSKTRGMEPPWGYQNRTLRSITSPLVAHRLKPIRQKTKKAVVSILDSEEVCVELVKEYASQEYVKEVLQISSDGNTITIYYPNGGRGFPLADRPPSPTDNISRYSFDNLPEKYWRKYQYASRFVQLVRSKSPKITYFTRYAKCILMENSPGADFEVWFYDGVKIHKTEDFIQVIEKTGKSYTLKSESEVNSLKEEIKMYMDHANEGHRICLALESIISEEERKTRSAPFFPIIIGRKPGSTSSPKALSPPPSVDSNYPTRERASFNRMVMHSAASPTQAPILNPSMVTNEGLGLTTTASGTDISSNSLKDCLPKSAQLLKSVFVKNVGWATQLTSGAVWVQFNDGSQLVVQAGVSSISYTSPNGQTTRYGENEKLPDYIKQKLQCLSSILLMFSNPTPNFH
The experiment can be described thus: Selectivity interaction (KinomeScan (DiscoverX)) EUB0000695a PLK4. The conditions noted are these: at 100 nM.

The target of experiment [2] is Ribosomal protein S6 kinase alpha-3 (Homo sapiens, UniProt P51812). The experiment can be described thus: Selectivity interaction (Kinase screening (Nanosyn)) EUB0000604a RPS6KA3.
Chain of Ribosomal protein S6 kinase alpha-3 (P51812 whole entry): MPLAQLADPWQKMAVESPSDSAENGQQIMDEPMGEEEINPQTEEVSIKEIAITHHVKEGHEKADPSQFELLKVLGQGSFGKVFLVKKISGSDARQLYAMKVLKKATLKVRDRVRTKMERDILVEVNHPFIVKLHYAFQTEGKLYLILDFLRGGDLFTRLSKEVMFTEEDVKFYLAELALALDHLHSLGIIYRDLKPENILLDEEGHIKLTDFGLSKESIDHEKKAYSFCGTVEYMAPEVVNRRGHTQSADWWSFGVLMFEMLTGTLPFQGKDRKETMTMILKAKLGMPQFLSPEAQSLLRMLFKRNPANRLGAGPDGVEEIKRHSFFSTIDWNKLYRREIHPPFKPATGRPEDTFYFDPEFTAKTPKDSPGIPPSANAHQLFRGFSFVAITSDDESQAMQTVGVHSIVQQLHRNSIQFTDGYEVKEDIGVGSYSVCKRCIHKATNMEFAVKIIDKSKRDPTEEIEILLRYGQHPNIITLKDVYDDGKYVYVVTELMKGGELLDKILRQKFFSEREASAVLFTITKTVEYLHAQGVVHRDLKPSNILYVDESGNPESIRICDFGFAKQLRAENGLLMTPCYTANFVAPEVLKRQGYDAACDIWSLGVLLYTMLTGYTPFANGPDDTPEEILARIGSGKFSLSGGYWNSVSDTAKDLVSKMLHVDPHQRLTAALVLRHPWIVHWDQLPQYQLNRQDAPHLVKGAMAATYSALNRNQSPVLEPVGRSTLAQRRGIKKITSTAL
In experiment [3] the target is T2, Serine/threonine-protein kinase LATS1 (Homo sapiens) (UniProt O95835).
T2 sequence (whole entry): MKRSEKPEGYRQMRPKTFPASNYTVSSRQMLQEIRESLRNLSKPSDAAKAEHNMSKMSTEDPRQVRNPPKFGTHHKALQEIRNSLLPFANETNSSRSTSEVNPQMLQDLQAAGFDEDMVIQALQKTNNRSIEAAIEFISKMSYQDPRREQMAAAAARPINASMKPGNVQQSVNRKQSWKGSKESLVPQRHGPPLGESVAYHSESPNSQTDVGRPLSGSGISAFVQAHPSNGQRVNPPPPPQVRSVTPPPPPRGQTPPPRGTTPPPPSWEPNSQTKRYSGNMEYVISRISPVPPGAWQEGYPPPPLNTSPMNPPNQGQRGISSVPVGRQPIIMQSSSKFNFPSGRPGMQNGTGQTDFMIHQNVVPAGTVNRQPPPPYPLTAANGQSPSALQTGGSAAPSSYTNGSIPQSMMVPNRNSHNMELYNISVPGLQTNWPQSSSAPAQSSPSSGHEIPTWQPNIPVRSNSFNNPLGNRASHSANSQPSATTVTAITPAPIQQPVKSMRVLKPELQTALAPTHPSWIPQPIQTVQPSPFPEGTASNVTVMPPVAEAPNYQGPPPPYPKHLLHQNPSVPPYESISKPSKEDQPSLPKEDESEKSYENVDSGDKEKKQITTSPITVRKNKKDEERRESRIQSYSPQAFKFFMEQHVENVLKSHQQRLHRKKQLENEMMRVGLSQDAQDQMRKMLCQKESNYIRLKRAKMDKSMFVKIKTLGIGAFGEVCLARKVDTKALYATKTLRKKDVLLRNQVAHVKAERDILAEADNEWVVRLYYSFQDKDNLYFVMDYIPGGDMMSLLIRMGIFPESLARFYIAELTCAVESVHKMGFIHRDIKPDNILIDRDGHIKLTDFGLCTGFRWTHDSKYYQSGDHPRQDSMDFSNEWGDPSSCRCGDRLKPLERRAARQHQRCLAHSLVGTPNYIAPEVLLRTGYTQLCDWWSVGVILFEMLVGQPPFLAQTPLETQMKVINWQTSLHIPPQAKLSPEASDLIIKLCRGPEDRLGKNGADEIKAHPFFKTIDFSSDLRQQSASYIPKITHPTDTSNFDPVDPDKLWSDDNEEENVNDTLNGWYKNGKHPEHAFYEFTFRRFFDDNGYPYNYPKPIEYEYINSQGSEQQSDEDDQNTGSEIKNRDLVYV
Put plainly: Selectivity interaction (ActivX KiNativ screen (kinase selectivity in THP-1 cell lysates)) EUB0000639a LATS1. Type of experiment: subcellular. The following applies: lysate, at 0.04 µM.

In experiment [4] the target is Dual specificity mitogen-activated protein kinase kinase 1 (Homo sapiens, UniProt Q02750). Put plainly: Selectivity interaction (Ambit KINOMEscan and KiNATiv profiling in Jurkat cells) EUB0000090b MAP2K1. It counts as cell-based. The conditions noted are these: at 1 µM.
Chain of Dual specificity mitogen-activated protein kinase kinase 1 (Q02750 whole entry): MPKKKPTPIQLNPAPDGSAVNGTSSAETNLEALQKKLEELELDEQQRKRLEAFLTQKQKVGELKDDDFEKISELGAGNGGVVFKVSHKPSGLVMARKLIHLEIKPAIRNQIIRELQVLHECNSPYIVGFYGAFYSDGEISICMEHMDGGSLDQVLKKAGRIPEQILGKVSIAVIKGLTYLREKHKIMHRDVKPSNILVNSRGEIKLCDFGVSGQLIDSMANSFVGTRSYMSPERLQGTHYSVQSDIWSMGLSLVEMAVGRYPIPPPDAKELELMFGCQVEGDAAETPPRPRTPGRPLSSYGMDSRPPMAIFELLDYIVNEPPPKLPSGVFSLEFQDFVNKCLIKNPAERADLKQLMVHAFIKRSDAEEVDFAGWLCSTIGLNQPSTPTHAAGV
For experiment [5], the target named is T3, Serine/threonine-protein kinase Sgk3 (Homo sapiens) (UniProt Q96BR1).
T3 sequence (whole entry): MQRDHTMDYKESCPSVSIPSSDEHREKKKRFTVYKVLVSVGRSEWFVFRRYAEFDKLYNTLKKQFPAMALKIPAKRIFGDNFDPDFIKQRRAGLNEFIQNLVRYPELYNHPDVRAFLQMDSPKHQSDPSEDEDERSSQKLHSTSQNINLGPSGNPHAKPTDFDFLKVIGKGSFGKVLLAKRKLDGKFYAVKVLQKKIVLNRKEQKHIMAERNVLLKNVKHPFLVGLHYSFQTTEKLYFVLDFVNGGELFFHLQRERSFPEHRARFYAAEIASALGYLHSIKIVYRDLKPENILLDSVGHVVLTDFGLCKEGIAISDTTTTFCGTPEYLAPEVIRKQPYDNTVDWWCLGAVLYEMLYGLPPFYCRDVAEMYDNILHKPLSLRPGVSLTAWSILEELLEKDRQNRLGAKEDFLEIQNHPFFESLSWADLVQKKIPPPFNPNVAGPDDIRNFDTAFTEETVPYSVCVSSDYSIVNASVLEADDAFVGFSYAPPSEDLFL
The experiment can be described thus: Selectivity interaction (KinomeScan (DiscoverX)) EUB0001079a SGK3. The conditions noted are these: at 1 µM.

For `Cc1cc(F)c(C(=O)Nc2cccc(-c3nncn3C(C)C)n2)cc1-n1cnc(C2CC2)c1`, in experiment [1], the % of control came to 100%.

With `Cc1cnc(Nc2ccc(F)cc2Cl)nc1-c1c[nH]c(C(=O)N[C@H](CO)c2cccc(Cl)c2)c1`, the % of inhibition in experiment [2] amounted to 6%.

As to `CC[C@@H]1[C@H](F)C(=O)N[C@@H]1COc1nccc2cc(C(N)=O)c(OC)cc12` [ZIMLOVISERTIB], the % of inhibition in experiment [3] is -18.5%.

In experiment [4], `CN(C)C/C=C/C(=O)Nc1ccc(C(=O)N2CCCC(Nc3ncc(Cl)c(-c4c[nH]c5ccccc45)n3)C2)cc1` (stereo not given) returned a % of control of 99%.

In experiment [5], `Nc1cnc(N2CCc3cc(S(=O)(=O)Nc4c(F)cc(Cl)cc4F)cc(N4CCCC4=O)c32)nc1` [TP-020n] yielded a % of control of 100%.
